Read-outs that look alike come from different tables or passages of the source.
Key:
Format in all cases: binding
S. aureus TrmD = target: T1, S. aureus TrmD (Staphylococcus aureus, UniProt Q2FZ43); assay: nanoSAR direct-to-biology FP displacement screening of crude triazoles; conditions: read-out: % displaced tracer
T1 construct: made in house; host or cells: E. coli BL21
T1 sequence (Q2FZ43 1-245): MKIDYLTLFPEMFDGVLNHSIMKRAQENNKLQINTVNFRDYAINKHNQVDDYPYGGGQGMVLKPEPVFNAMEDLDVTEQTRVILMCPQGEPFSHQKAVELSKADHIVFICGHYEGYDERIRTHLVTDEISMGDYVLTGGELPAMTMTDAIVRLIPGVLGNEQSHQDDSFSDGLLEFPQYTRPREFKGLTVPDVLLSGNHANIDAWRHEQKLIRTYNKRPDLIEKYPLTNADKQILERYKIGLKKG
Summary of the method: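 Crude CuAAC triazoles from alkyne 7 and 320 diverse azides were screened by FP displacement of 10 nM tracer 4 from 500 nM S. aureus TrmD. Buffer was 40 mM Tris HCl, 100 mM NaCl, 10 mM MgCl2, 5% glycerol, pH 7.5.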

H. influenzae TrmD = target: T2, H. influenzae TrmD (Haemophilus influenzae, UniProt P43912); assay: Fluorescence polarization (FP) assay, tracer 3 (Cy5TPD), H. influenzae TrmD
T2 construct: host or cells: E. coli BL21
Protocol: Fluorescence polarization (FP) assays were performed as follows. The assays for H. influenzae TrmD have been described previously. All assays were conducted in technical triplicate using black 96-well half area plates. For the FP assays, a tracer (20 nM Cy5TPD for E. coli and H. influenzae TrmD, 10 nM tracer 4 for S. aureus TrmD) was mixed with the respective enzyme (2 μM E. coli TrmD, 2 μM H. influenzae TrmD, 500 nM S. aureus TrmD) in buffer (E. coli and H. influenzae TrmD: 50 mM HEPES, 500 mM NaCl, 5% Glycerol, pH 7.5, S. aureus TrmD: 40 mM Tris HCl, 100 mM NaCl, 10 mM MgCl2, 5% Glycerol, pH 7.5). The compounds were added in varying concentrations for K D-value determination. […] The Z-factor for tracer 4 was determined by measuring 48 replicates of the free tracer (positive controls, PC) and 48 replicates of a mixture of enzyme and tracer (negative controls, NC). The Z-factor is defined in terms of the means (μ) and standard deviations (σ) of the positive and negative controls and calculated as Z = 1–(3*(σnc + σpc)/(μnc–μpc)). […] Polarization values (mP) were determined from polarization-specific parallel and orthogonal fluorescence intensities. K D-values were calculated in GraphPad Prism 8.0.1 using the four-parameter Hill equation: y(% tracer bound) = bottom + ([ligand]-slope) × (top–bottom)/([ligand]-slope + K Dslope).

E. coli TrmD = target: T3, E. coli TrmD (Escherichia coli, UniProt P0A873); assay: Fluorescence polarization (FP) assay, tracer 3 (Cy5TPD), E. coli TrmD
T3 construct: made in house; host or cells: E. coli (the strain received with the pCA24N plasmid)
Protocol: Fluorescence polarization (FP) assays were performed as follows. The assays for H. influenzae TrmD have been described previously. All assays were conducted in technical triplicate using black 96-well half area plates. For the FP assays, a tracer (20 nM Cy5TPD for E. coli and H. influenzae TrmD, 10 nM tracer 4 for S. aureus TrmD) was mixed with the respective enzyme (2 μM E. coli TrmD, 2 μM H. influenzae TrmD, 500 nM S. aureus TrmD) in buffer (E. coli and H. influenzae TrmD: 50 mM HEPES, 500 mM NaCl, 5% Glycerol, pH 7.5, S. aureus TrmD: 40 mM Tris HCl, 100 mM NaCl, 10 mM MgCl2, 5% Glycerol, pH 7.5). The compounds were added in varying concentrations for K D-value determination. For K D-value determination of tracers, the enzyme concentration was varied, and no inhibitory compounds were added (DMSO < 0.5% for TrmDs). The Z-factor for tracer 4 was determined by measuring 48 replicates of the free tracer (positive controls, PC) and 48 replicates of a mixture of enzyme and tracer (negative controls, NC). The Z-factor is defined in terms of the means (μ) and standard deviations (σ) of the positive and negative controls and calculated as Z = 1–(3*(σnc + σpc)/(μnc–μpc)). Fluorescence polarization was measured using a Spark 10 M plate reader (Tecan) equipped with polarization filters and a monochromator setup (λex = 635 nm, λem = 680 nm). Polarization values (mP) were determined from polarization-specific parallel and orthogonal fluorescence intensities. K D-values were calculated in GraphPad Prism 8.0.1 using the four-parameter Hill equation: y(% tracer bound) = bottom + ([ligand]-slope) × (top–bottom)/([ligand]-slope + K Dslope).

[1] = crude triazole at 1 μM, assuming full conversion, 500 nM TrmD, 10 nM tracer 4
[2] = read-out: KD H. influenzae TrmD (FP)

T3 sequence (P0A873 whole entry): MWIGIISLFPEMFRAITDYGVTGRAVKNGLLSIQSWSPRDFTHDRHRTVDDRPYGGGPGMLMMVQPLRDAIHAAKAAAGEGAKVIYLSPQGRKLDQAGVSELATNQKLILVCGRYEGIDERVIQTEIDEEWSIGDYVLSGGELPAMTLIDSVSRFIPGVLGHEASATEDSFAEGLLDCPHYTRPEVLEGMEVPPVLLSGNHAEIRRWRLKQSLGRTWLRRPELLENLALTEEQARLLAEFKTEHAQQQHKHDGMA
T2 sequence (P43912 whole entry): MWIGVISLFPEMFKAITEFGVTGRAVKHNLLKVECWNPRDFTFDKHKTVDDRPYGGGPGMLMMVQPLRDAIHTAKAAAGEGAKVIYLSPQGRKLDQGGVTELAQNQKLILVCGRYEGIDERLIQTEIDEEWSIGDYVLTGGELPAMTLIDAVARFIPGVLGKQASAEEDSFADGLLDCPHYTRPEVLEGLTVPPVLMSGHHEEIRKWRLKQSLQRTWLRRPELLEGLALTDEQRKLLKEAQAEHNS

Row | Compound | inhibition at 1 µM (S. aureus TrmD; [1]) | Kd (H. influenzae TrmD; [2]) | Kd (E. coli TrmD) | inhibition at 1 µM (S. aureus TrmD) | Kd (H. influenzae TrmD; KD H. influenzae TrmD (FP))
1 | N#Cc1cccc(Cn2cc(-c3c[nH]c4nc[nH]c(=O)c34)nn2)c1 [Compound 8b, 3-((4-(4-Oxo-4,7-dihydro-3H-pyrrolo[2,3-d]pyrimidin-5-yl)-1H-1,2,3-triazol-1-yl)methyl)benzonitrile] | 100% | > 30 µM | > 30 µM |  | 
2 | O=c1[nH]cnc2[nH]cc(-c3cn(CC4CCC5C(CC4)C5(F)F)nn3)c12 (stereo not drawn) [Compound 8c, 5-(1-((8,8-Difluorobicyclo[5.1.0]octan-4-yl)methyl)-1H-1,2,3-triazol-4-yl)-3,7-dihydro-4H-pyrrolo[2,3-d]pyrimidin-4-one] | 98% | > 30 µM | > 30 µM |  | 
3 | O=c1[nH]cnc2[nH]cc(-c3cn(Cc4ccc5ncccc5c4)nn3)c12 [Compound 8d, 5-(1-(Quinolin-6-ylmethyl)-1H-1,2,3-triazol-4-yl)-3,7-dihydro-4H-pyrrolo[2,3-d]pyrimidin-4-one] | 98% | > 30 µM | > 30 µM |  | 
4 | N[C@@H]1CCC[C@@H]1Cn1cc(-c2c[nH]c3nc[nH]c(=O)c23)nn1 [Compound 8e, 5-(1-(((1R,2R)-2-Aminocyclopentyl)methyl)-1H-1,2,3-triazol-4-yl)-3,7-dihydro-4H-pyrrolo[2,3-d]pyrimidin-4-one] | 93% | > 30 µM | > 30 µM |  | 
5 | NC(N)=NCCn1cc(-c2c[nH]c3nc[nH]c(=O)c23)nn1 [Compound 8h] |  |  | > 30 µM | 97% | > 30 µM

From PMC12751012, “Nanoscale Direct-to-Biology Optimization and Structural Insights into Selective S. aureus TrmD Inhibitors” (Journal of Medicinal Chemistry, 2025)
